Results: ChEMBL document CHEMBL3244356, “Synthesis of some pentazocine metabolites and related compounds” (1977)
The source made the active and inactive calls. No cut-off for these calls is given here.

Tests used:
[1] = tested on: Rattus norvegicus; assay: Antinociceptive activity in rat assessed as protection from p-phenylquinone-induced writhing at 100 mg/kg, sc; format: functional, organism-based; set-up: dose 100 mg/kg
[2] = species: Rattus norvegicus; assay: Inhibition of meperidine-induced antinociceptive activity in rat by D'Amour-Smith thermal stimulus test; format: functional
[3] = tested on: Rattus norvegicus; assay: Antinociceptive activity in rat at 120 mg/kg, sc by D'Amour-Smith thermal stimulus test; format: functional, organism-based; set-up: dose 120 mg/kg
[4] = species: Rattus norvegicus; assay: Antinociceptive activity in rat assessed as protection from p-phenylquinone-induced writhing; format: functional
[5] = tested on: Rattus norvegicus; assay: Inhibition of meperidine-induced antinociceptive activity in rat at 80 mg/kg, sc by D'Amour-Smith thermal stimulus test; format: functional, organism-based; set-up: dose 80 mg/kg
[6] = tested on: Rattus norvegicus; assay: Antinociceptive activity in rat at 60 mg/kg, sc by D'Amour-Smith thermal stimulus test; format: functional, organism-based; set-up: dose 60 mg/kg
[7] = tested on: Rattus norvegicus; assay: Inhibition of meperidine-induced antinociceptive activity in rat at 40 mg/kg, sc by D'Amour-Smith thermal stimulus test; format: functional, organism-based; set-up: dose 40 mg/kg

| Structure (SMILES) | AD50 [2] | Activity [3] | ED50 [4] [mg/kg] | further results |
| --- | --- | --- | --- | --- |
| C/C(=C\CN1CC[C@@]2(C)c3cc(O)ccc3C[C@@H]1[C@@H]2C)C(=O)O (racemic) | inactive | – | – | Activity [1]: inactive |
| C[C@H]1[C@H]2Cc3ccc(O)cc3[C@]1(C)CCN2CCC(C)(C)O (racemic) | – | inactive | 37 | inhibition [5]: inactive |
| CC(=O)CCN1CC[C@@]2(C)c3cc(O)ccc3C[C@@H]1[C@@H]2C (racemic) | 1.7 mg/kg | inactive | 22 | – |
| CC(C)=CCN1CC[C@]2(C)c3cc(O)ccc3C[C@H]1[C@H]2C [(+)-PENTAZOCINE] | 3.9 mg/kg | inactive | 2.3 | – |
| CCOC(=O)CN1CC[C@@]2(C)c3cc(O)ccc3C[C@@H]1[C@@H]2C (racemic) | 66 mg/kg | inactive | – | – |
| CC(C)C(=O)CN1CC[C@@]2(C)c3cc(O)ccc3C[C@@H]1[C@@H]2C (racemic) | 2.8 mg/kg | – | – | – |
| C/C(=C\CN1CC[C@@]2(C)c3cc(O)ccc3C[C@@H]1[C@@H]2C)CO (racemic) | >320 mg/kg | – | 37 | – |
| C[C@H]1[C@H]2Cc3ccc(O)cc3[C@]1(C)CCN2CC(=O)O (racemic) | – | – | – | Activity [6]: inactive; inhibition [7]: inactive |
